Reference: patent US6545033B1, “Fused 1-(2,6-dichloro-4-trifluoromethylphenyl)-pyrazoles, the synthesis thereof and the use thereof as pesticides” (3-Dimensional Pharmaceuticals, Inc., priority 1999, dated 2003)

Experiments:
[1] = test system: cat fleas (Ctenocephalides felis), CO Fleas; assay: In vivo cat flea contact assay, CO fleas; details: contact with treated filter disk in vial, about 24-30 hours, mM = concentration of the DMSO solution, about 1 μL applied; for LC50: Ctenocephalides felis, topical, read-out: LD50 (mM), CO Fleas
Method: (§1) This example describes an in vivo assay to screen compounds for their ability to kill cat fleas via contact.
(§2) Test compounds were dissolved in dimethylsulfoxide (DMSO) at concentrations ranging from about 0.05 mM to about 100 mM. About 1 μL of dissolved test compound was dispensed onto a 6 mm (diameter) GF/C filter disk (filter material available from Whatman Inc., Clifton, N.J.) in the bottom of a 4 mL screw-top glass vial and allowed to air dry 24-48 hours. Positive control vials were prepared in the same manner except that no test compounds were dissolved in the DMSO. About 20 newly emerged cat fleas (Ctenocephalides felis) were sedated by refrigeration at 0-4° C. and transferred to each vial. Each vial was sealed with a thin, perforated Teflon™ septum secured by an open top screw cap and held vertically in the dark. After about 24-30 hours, the healthy, moribund, and dead cat fleas in each vial were counted. The percentage of dead cat fleas in each vial was then calculated using the formula M=100(D−(FC/100))/(F−(FC/100)), in which M is the percentage of dead cat fleas due to the addition of the test compound, D is the number of dead cat fleas in the test vial, F is the total number of cat fleas in the test vial, and C is the percentage of dead cat fleas in the control vials.

[2] = test system: houseflies (Musca domestica); assay: In vivo housefly contact assay; details: contact in coated glass test tube, about 24 hours; mM = concentration of the DMSO solution, about 1 μL applied
Method: This example describes an in vivo assay to screen compounds for their ability to kill houseflies via contact. Newly emerged houseflies (Musca domestica, available from Rincon-Vitova Insectaries, Inc., Ventura, Calif.) were sedated with carbon dioxide gas, collected in 50 mL polypropylene conical tubes containing filter paper saturated with 10% (w/w) sucrose in water, and allowed to feed at room temperature for about 2-4 hours. Test compounds were dissolved as in dimethylsulfoxide (DMSO) at concentrations ranging from about 0.05 mM to about 100 mM. About 1 μL of dissolved test compound and about 100 μL of isopropanol were dispensed into the bottom of a 9 mL screw-top glass test tube. Positive control test tubes were prepared in the same manner except that no test compounds were dissolved in the DMSO. Each test tube was rolled to coat the sides with the chemical solution, and allowed to air dry 24-48 hours. About 20 houseflies were sedated by refrigeration at 0-4° C. and transferred to each test tube. Each test tube was sealed with organdy cloth secured by an open top screw cap and laid horizontally in the dark. After about 24 hours, the healthy, moribund, and dead houseflies in each test tube were counted. The percentage of dead houseflies in each test tube was then calculated using the formula M=100(D−(FC/100))/(F−(FC/100)), in which M is the percentage of dead houseflies due to the addition of the test compound, D is the number of dead houseflies in the test tube, F is the total number of houseflies in the test tube, and C is the percentage of dead houseflies in the control test tubes.

[3] = test system: cat fleas (Ctenocephalides felis), NC Fleas; assay: In vivo cat flea contact assay, NC fleas; details: contact with treated filter disk in vial, about 24-30 hours; mM = concentration of the DMSO solution, about 1 μL applied
Method: as §1, §2

Housefly GABA receptors = target: T1, Housefly GABA receptors (Musca domestica, UniProt Q75NA5); assay: In vitro assay of binding to housefly GABA receptors (3H-EBOB displacement, housefly neuronal membranes); details: for Compounds with the most activity (housefly 3H-EBOB binding): housefly neuronal membranes
T1 sequence (Q75NA5 30-576): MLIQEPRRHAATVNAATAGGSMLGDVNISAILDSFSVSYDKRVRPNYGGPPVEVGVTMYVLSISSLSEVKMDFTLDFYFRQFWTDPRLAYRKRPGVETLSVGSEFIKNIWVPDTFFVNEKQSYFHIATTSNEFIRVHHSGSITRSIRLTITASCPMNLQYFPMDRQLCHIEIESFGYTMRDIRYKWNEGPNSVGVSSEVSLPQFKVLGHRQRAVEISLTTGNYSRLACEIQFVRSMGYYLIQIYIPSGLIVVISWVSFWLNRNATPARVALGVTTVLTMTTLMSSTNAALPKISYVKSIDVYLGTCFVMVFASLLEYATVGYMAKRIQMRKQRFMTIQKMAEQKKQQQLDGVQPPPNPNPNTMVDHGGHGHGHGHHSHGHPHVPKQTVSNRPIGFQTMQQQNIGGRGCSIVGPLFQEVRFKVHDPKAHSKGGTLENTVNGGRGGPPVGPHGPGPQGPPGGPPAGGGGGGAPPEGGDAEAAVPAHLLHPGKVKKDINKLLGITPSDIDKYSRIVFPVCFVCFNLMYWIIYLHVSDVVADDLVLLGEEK
Method: Newly emerged houseflies (Musca domestica, available from Rincon-Vitova Insectaries, Inc., Ventura, Calif.) were sedated with carbon dioxide gas, collected in 50 mL polypropylene conical tubes, and immediately frozen by submersion in liquid nitrogen. Unless specified, all of the following work was performed at 0-4° C. After removal from liquid nitrogen, the tubes of frozen houseflies were shaken vigorously by hand to decapitate the houseflies. […] Contaminating wings were removed by holding a vacuum nozzle approximately 4 cm above the heads, and contaminating legs were separated from the heads by passage through a #15 mesh screen. All remaining debris were removed from the pool of heads using forceps. The purified heads were collected in 50 mL polypropylene conical tubes and stored in liquid nitrogen until processed further.
About 13 g of purified housefly heads were suspended in about 65 mL of 10% sucrose buffer (10% sucrose (w/w) in 10 mM Tris, pH 7.5). The heads were homogenized for about 1 minute, using a Tissumizer™ homogenizer equipped with a SDT-100EN probe (available from Tekmar-Dohrmann, Cincinnati, Ohio) running at 70% of its maximum speed. The extract was further homogenized by about 5 passes through a 40 mL Dounce tissue grinder. The extract was then centrifuged at about 500×g for about 5 minutes to pellet large debris. The supernatant was collected; the pellet was washed with an additional 65 mL of 10% sucrose buffer and centrifuged at 500×g for about 5 minutes. The second supernatant was collected and combined with the first supernatant, and the pool was filtered through a 100μ CellMicroSieve™ mesh to remove residual debris (available from BioDesign of New York, Carmel, N.Y.).
Neuronal membranes containing active GABA receptors were collected via sucrose density centrifugation by the following method. About 8 mL of 35% sucrose buffer (35% sucrose (w/w) in 10 mM Tris, pH 7.5), were dispensed into each of six 38 mL ultracentrifuge tubes. These layers were overlaid with about 8 mL of 20% sucrose buffer (20% sucrose (w/w) in 10 mM Tris, pH 7.5), and finally overlaid with about 20 mL of filtered extract supernatant. The tubes were centrifuged at about 120,000×g for about 100 min at 4° C. After centrifugation, the 10% sucrose layer and most of the 20% sucrose layer were removed by aspiration. The membranes at the interface of the 20% sucrose and 35% sucrose layers were collected, pooled, diluted with 10% sucrose buffer, and centrifuged at about 120,000×g for about 40 min at 4° C. After centrifugation, the supernatant was discarded, and the pellets resuspended in about 6.5 mL of assay buffer (10 mM phosphate, 300 mM NaCl, pH 7.5) using a 10 mL Potter-Elvehjem tissue grinder with a Teflon® pestle. Protein concentration was determined by the Bio-Rad Protein Assay (available from Bio-Rad Laboratories, Hercules, Calif.) using bovine serum albumin as a standard. The membranes were aliquoted and stored in liquid nitrogen for up to 2 months before use.
Housefly neuronal membranes were prepared as described above from housefly heads. Test compounds were dissolved in dimethylsulfoxide (DMSO) at concentrations ranging from about 2 nM to about 100 mM. About 1 μL of a dissolved test compound was dispensed into a well of a 96-well polystyrene plate. About 100 μL of ice cold assay buffer (10 mM phosphate, 300 mM NaCl, pH 7.5) containing 5.2 nM 4′-Ethynyl-4-n-[2,3-^3H2]propylbicycloorthobenzoate (^3H-EBOB, 38 Ci/mmol, available from NEN Life Science Products, Boston, Mass.) was added to the well, followed by about 100 μL of ice cold assay buffer containing about 0.5-1.0 mg/mL housefly neuronal membranes. Control wells were prepared the same way except that the housefly neuronal membranes were omitted from the “negative” wells, and the test compounds were omitted from the “positive” wells. […]

`O=S1(=O)Cc2cn(-c3c(Cl)cc(C(F)(F)F)cc3Cl)nc2C1` [3″, 2-[2,6-Dichloro-4-(trifuoromethyl)phenyl]-4,6-dihydrothieno-[3,4-c]pyrazole-5,5-dione] was tested, and the “LD50 (mM), CO Fleas” value [1] was greater than 100 mM, the “LD50 (mM), Flies” value [2] was 5 mM and the “LD50 (mM), NC Fleas” value [3] was greater than 100 mM.

In the case of `FC(F)(F)c1cc(Cl)c(-n2cc3c(n2)CCCC3)c(Cl)c1` [Compound 13, 2-[2,6-Dichloro-4-(trifluoromethyl)phenyl]-4,5,6,7-tetrahydro-2H-indazole], the LC50 [1] is reported as 37.5 mM, the “Compounds with the most activity (housefly 3H-EBOB binding)” value (“Compounds with the most activity” for short) (Housefly GABA receptors) is reported as “most activity” and the “LD50 (mM), Flies” value [2] is reported as greater than 100 mM. The “LD50 (mM), NC Fleas” value [3] was 20 mM.

`FC(F)(F)c1cc(Cl)c(-n2cc3c(n2)C2CCC3C2)c(Cl)c1` (centres unmarked) [Compound 35, 3,4-Diaza-4-[2,6-dichloro-4-(trifluoromethyl)phenyl]tricyclo-[5.2.1.0^2.6]deca-2,5-diene] was tested, and the LC50 [1] was 17 mM, the “Compounds with the most activity” value (Housefly GABA receptors) was “most activity” and the “LD50 (mM), Flies” value [2] was 48 mM. For the same compound, the “LD50 (mM), NC Fleas” value [3] was 12 mM.

In the case of `CC1(C)CCc2nn(-c3c(Cl)cc(C(F)(F)F)cc3Cl)cc21` [Compound 38, 2-[2,6-Dichloro-4-(trifluoromethyl)phenyl]-4,4-dimethyl-2,4,5,6-tetrahydrocyclopenta[c]pyrazole], the LC50 [1] is reported as 54 mM, the “Compounds with the most activity” value (Housefly GABA receptors) is reported as “most activity” and the “LD50 (mM), Flies” value [2] is reported as greater than 100 mM. For the same compound, the “LD50 (mM), NC Fleas” value [3] was 15 mM.

`CC1(O)c2cn(-c3c(Cl)cc(C(F)(F)F)cc3Cl)nc2C(F)C1F` (centres unmarked) [Compound 88, 2-[2,6-Dichloro-4-(trifluoromethyl)phenyl]-5,6-difluoro-4-methyl-2,4,5,6-tetrahydrocyclopenta[c]pyrazol-4-ol] was tested, and the LC50 [1] was 5 mM and the IC50 (Housefly GABA receptors; displacement of 5.2 nM 3H-EBOB, housefly head neuronal membranes, about 45 min at about 24° C., read-out: IC50 (nM), Fly Head) was 350 nM.
